Data reported in US20230220047A1, “PEPTIDES FOR TREATMENT OF SEPSIS AND CANCER” (NORWEGIAN UNIVERSITY OF SCIENCE AND TECHNOLOGY (NTNU), priority 2020, published 2023).

Tests used:
[1] = test system: TLR4; assay: Western blot of LPS signalling in murine immortalized BMDMs; format: cell-based, mouse; settings: murine macrophages, 10 μM
Experimental: Western blot analysis of lysates from cells pretreated with media containing controls (water, DMSO or 10 μM control peptide C3-Pen) or P7-Pen peptide for 30 min before stimulation with LPS (K12 LPS, 100 ng/ml) for designated time periods.
(§1) Protein pellets were dissolved by heating protein pellets for 10 min at 95° C. in buffer containing 4 M urea, 1 SDS (Sigma) and NuPAGE® LDS Sample Buffer (4×) (Thermo Fisher Scientific). Otherwise, lysates were made using 1× RIPA lysis buffer (150 mM NaCl, 50 mM TrisHCl (pH 7.5), 1% Triton X100, 5 mM EDTA, protease inhibitors, phosphatase inhibitors). For Western blot analysis we used pre-cast protein gels NuPAGE™ Novex™ and iBlot Transfer Stacks iBlot Gel Transfer Device (Thermo Fisher Scientific). Proteins were transferred to the membrane by dry-blotting using iBlot® 2 NC Regular/Mini Stacks (Life Technologies) in the iBlot 2 Dry Blotting System (Life Technologies). After secondary antibody incubation, membranes were washed and incubated with HRP substrate solution (SuperSignal™ West Femto Maximum Sensitivity Substrate (Thermo Fisher Scientific)). Images were taken using Odyssey® Fc (LI-CORE). Quantification graphs were generated by the analysis of signal intensities for protein bands (protein of interest and endogenous loading control—β-tubulin from the same membrane) using Odyssey software (LI-CORE). Data were normalised to the expression levels of β-tubulin and presented as a relative fold change to the control sample.
In addition, pre-treatment of murine macrophages with P7-Pen inhibited LPS-mediated phosphorylation of TBK1 and IκBα, and decreased phosphorylation of p38 MAPK (FIG. 23).

[2] = test system: TLR9; format: cell-based, human; settings: 15 μM, 1 h pre-treatment, CpG 2006
Experimental: CpG 2006 (10 μM) was used as specific TLR9 ligand. (A) Results of LDH assay on SNs from stimulated cells. (B-E) Results of qPCR analysis of cytokine expression with TaqMan probes. (F) Results of ELISA for secreted IL-113 levels. Cells were pre-treated with 15 μM peptides for 1 h, followed by addition of CpG 2006 to the cell culture media.
We then tested whether P7-Pen could alter signaling via another endosomal PRR: TLR9, which recognises specific unmethylated CpG motifs prevalent in microbial DNA. In humans, TLR9 is almost exclusively expressed in B cells and plasmacytoid dendritic cells (pDC), while in mice TLR9 is expressed more widely, including in myeloid immune cells. To test the effect of P7-Pen on signaling via human TLR9 we used a model system of THP-1 cells expressing an inducible TLR9^CHERRY construct. 48 hr after induction of TLR9 expression by doxycycline, undifferentiated THP-1 TLR9^CHERRY cells were pre-treated with control or P7-Pen peptide for 1 hr, then stimulated with the Class B CpG oligonucleotide CpG 2006 ODN (a human-specific TLR9 agonist). […] Thus, P7 peptide could also be used to inhibit the expression of selected cytokines mediated by TLR9 in human disease.

[3] = test system: TLR4; assay: Western blot of LPS signalling in THP-1 cells and primary human monocytes; format: cell-based
Experimental: as §1
Further, we tested the effect of P7-Pen on phosphorylation of p38 MAPK, IκBα degradation and modification of IRAK1 in human macrophages (THP-1 cells) and primary human monocytes. P7-Pen inhibited LPS-mediated phosphorylation of p38 MAPK (FIG. 24A) and inhibited IRAK1 ubiquitination/phosphorylation (visualised as band shift to higher molecular weight) in primary monocytes (FIG. 24B).

[4] = target: T1, MyD88 signaling complex (Homo sapiens, UniProt P51617+Q99836+Q9NWZ3); assay: IRAK immunoprecipitations from LPS-stimulated human monocytes; format: cell-based; settings: 15 μM, LPS 100 ng/ml
T1 construct: abrogated IRAK1, 2 and 4 recruitment to the MyD88 signaling complex in human monocytes; endogenous in cells; host or cells: primary human monocytes, LPS-stimulated
T1 sequence (Q99836 whole entry): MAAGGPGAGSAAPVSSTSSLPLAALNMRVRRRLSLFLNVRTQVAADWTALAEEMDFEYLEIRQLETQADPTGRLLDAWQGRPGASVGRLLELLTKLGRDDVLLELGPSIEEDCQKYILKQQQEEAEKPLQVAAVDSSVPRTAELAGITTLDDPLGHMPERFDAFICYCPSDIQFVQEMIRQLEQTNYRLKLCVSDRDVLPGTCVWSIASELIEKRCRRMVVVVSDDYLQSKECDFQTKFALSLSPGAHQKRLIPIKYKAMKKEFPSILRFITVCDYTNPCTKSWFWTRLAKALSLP
T1 sequence (P51617 whole entry): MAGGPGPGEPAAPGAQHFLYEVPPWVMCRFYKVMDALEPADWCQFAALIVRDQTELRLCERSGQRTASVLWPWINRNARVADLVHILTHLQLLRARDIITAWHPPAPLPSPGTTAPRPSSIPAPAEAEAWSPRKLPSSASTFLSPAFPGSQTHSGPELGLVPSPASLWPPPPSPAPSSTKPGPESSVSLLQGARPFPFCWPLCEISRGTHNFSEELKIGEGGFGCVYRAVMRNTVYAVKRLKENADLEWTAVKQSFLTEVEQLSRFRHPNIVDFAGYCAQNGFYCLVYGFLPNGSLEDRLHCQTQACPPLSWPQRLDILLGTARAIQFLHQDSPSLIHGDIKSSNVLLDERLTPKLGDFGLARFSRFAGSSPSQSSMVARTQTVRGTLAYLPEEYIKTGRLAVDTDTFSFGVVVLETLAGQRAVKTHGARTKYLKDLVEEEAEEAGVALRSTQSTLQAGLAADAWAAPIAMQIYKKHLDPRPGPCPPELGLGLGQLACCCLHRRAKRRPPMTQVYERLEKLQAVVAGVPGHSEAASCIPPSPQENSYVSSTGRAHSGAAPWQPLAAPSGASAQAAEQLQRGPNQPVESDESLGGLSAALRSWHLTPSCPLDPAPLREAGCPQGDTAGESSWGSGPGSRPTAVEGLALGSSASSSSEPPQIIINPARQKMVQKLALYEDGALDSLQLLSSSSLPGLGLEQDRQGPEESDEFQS
T1 sequence (Q9NWZ3 whole entry): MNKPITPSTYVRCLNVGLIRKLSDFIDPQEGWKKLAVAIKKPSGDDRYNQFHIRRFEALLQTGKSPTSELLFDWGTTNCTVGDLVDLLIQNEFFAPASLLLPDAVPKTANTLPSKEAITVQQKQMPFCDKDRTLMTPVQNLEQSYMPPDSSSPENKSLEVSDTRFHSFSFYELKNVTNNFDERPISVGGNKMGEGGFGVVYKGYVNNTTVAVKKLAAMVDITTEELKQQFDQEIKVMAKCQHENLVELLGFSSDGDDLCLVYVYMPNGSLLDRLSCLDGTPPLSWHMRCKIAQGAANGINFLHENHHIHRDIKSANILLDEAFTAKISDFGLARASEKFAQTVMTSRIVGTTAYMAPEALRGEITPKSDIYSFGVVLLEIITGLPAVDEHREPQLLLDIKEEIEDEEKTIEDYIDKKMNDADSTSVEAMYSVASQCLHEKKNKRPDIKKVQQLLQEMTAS
Experimental: Cell were pre-treated with Pen or P7-Pen (15 μM) for 30 min before addition of LPS (100 ng/ml) for specified time periods. Precipitations were performed using sheep anti-IRAK4 (A), anti-IRAK1 (B) and anti-IRAK2 (C) polyclonal antibodies covalently bound to magnetic beads, followed by Western blot analysis of lysates and precipitated proteins.
Pre-treatment of monocytes with P7-Pen abrogated recruitment of all tested IRAKs (1,2 and 4) to MyD88 (FIG. 28). This could be achieved by the peptide disrupting the Mal-MyD88 interaction, Mal-IRAK interactions or MyD88-IRAK interactions. Since IL-1R-initiated signalling through the Myddosome complex is not inhibited by the P7 peptide (see above), it is most likely that P7 interferes with Mal-IRAK interactions or the Mal-MyD88 interaction, rather than MyD88-IRAK interactions (since Mal is not involved in IL-1R signaling).

[5] = test system: human IL-1 receptor; assay: HEK-Blue IL-1R cells stimulated with human recombinant IL-1β; format: cell-based
Description: TLR2 and 4, and the endosomal TLRs 7-9, use the Myddosome signaling complex to activate transcription of pro-inflammatory cytokines, and endosomal TLRs also activate expression of type I IFNs via the same signaling complex. There are also several IL-1-like receptors including the IL-1 receptor (IL-1R) itself, which is characterized by extracellular immunoglobulin-like domains and intracellular Toll/Interleukin-1R (TIR) domains. These receptors also use the Myddosome complex to initiate downstream signaling. Therefore, we decided to test if signaling downstream of human IL-1R could be altered by the P7-Pen peptide. We used HEK-Blu IL-1R cells (Invivogen) that endogenously express the human IL-1 receptor. HEK-Blue IL-1R cells express a SEAP reporter gene under the control of the IFNβ minimal promoter fused to five NF-κB and five AP-1 binding sites. Binding of IL-1β to its receptor IL-1R on the surface of HEK-Blue IL-1R cells triggers a signaling cascade leading to the activation NF-κB and the subsequent production of SEAP.
In the assay, HEK-Blue IL-1R cells were pre-treated with control peptide or P7-Pen and stimulated with human recombinant II-1β (hII-1β) for up to 3 hr or for 24 hr. Stimulation of cells by TLR2 and 4 as well as by IL-1β would result in fast posttranslational modifications of IRAK1 in the Myddosome, and in phosphorylation of p38 MAPK. […]

Ac-ITVYASVTLTGRQIKIWFQNRRMKWKK-NH2 [Peptide P7-Pen]
LPS-mediated phosphorylation of TBK1 and IκBα [1]: inhibited | phosphorylation of p38 MAPK ([1]; LPS): decreased | TLR9-mediated IFNβ and CXCL10 expression [2]: strongly inhibited | TLR9-mediated expression of TNF and IL-1β [2]: to some extent inhibited | LPS-mediated phosphorylation of p38 MAPK ([3]; THP-1 cells): inhibited | IRAK1 ubiquitination/phosphorylation ([3]; primary monocytes, LPS): inhibited | recruitment of IRAKs (1, 2 and 4) to MyD88 [4]: abrogated | IL-1β-induced IRAK1 posttranslational modifications or p-p38 MAPK levels ([5]; data not shown): no effect | IL-1β-mediated secretion of SEAP ([5]; versus cells pre-treated with control peptide Pen (data not shown)): comparable
